The values below come from patent US11129870B2, “Compositions and methods for uncoupling TrkB receptor from PLC gamma 1 for the treatment of epilepsy and anxiety-like disorder” (DUKE UNIVERSITY, priority 2010, dated 2021).

For assay [1], the system named is TrkB-mediated activation of PLCγ1. In words: BDNF-mediated activation of PLCγ1 (p-PLCγ1 Y783 western blot) in cultured cortical neurons. The assay is classed as cell-based, rat. The settings on record: for BDNF-mediated increase of p-PLC γ-1/PLC γ-1 ratio (quantified, FIG. 10): 10-120 min pretreatment, 120 min p<0.05; for inhibition of BDNF-mediated increased p-PLCγ1 783: preincubation 60-120 min, BDNF 10 ng/ml.

Assay [2] relates to ERK. In words: BDNF-mediated increase of p-ERK in cultured cortical neurons (western blot). It is filed as cell-based, rat. The following applies: 10 μM, 10-120 min pretreatment. (Immunoblotting shows a protein as a band on a membrane.)
The subject of assay [3] is kainic acid-induced status epilepticus. Put plainly: Status epilepticus induced by kainic acid infusion into amygdala, peptide given i.v. before KA. The assay is classed as in vivo, mouse. The protocol:
FIG. 15: Continuous limbic and tonic-clonic seizures (status epilepticus) were induced in awake, adult male WT C57BL/6 mice weighing 20-25 g by unilateral stereotaxic microinjection of 0.3 μg kainic acid (KA) in a volume of 0.2 μl PBS, pH 7.4, into the right basolateral amygdala nucleus. Seven to nine days prior to KA infusion, a guide cannula was placed in the right amygdala under pentobarbital anesthesia using the following stereotactic coordinates relative to bregma: AP, −0.94 mm; ML, −2.85 mm; and DV, −3.75 mm (AP, anterior-posterior; ML, medio-lateral; DV, dorso-ventral); additionally, a bipolar EEG recording electrode was implanted into contralateral dorsal hippocampus: AP, −2.00 mm; ML, 1.60 mm; and DV, −1.53 mm. Phospho-Tat-pTrkBY816 or Scr-phospho-Tat-pTrkBY816 was injected intravenously through tail vein before amygdala KA infusion. EEG and mice behavior were recorded by EEG recording device and video camera respectively for 45 min following infusion of KA. Design of the time course and dose response experiments are presented in top and bottom panels respectively.
As described previously, microinjection of kainic acid into the right amygdala of awake, adult mice reliably induces continuous limbic and clonic motor seizures accompanied by electrographic evidence of seizure activity as detected by EEG recording electrode in the contralateral hippocampus. Status epilepticus is terminated by intraperitoneal administration of diazepam 45 minutes following infusion of kainic acid.
We asked whether intravenous infusion of Tat-pTrkBY816 via tail vein inhibited status epilepticus induced by microinjection of kainic acid into the right amygdala (FIG. 15). […] The inhibition of status epilepticus was also dose dependent. […] Whereas a dose of 1 mg/kg of Tat-pTrkBY816 was ineffective, doses of 3 mg/kg and 10 mg/kg effected a striking inhibition such that status epilepticus was prevented in at least 70% of animals (FIG. 17, top). By contrast, kainic acid induced status epilepticus in all animals pretreated with the control scr-Tat-pTrkBY816 regardless of dose (FIG. 17, top).
Surgery and microinfusion studies provided in Examples 10-14 were performed as described here. Surgery and microinfusion of KA into right amygdala of adult mice was performed as previously described (Liu, G. et al., (2013) Neuron 79:31-38). Briefly, mice were anesthetized with pentobarbital (60 mg/kg, intraperitoneally [i.p.]) and placed in a stereotaxic frame. A guide cannula was stereotactically placed above the right amygdala (coordinates from bregma: AP=−1.2 mm; ML=3.0 mm). A bipolar electrode was placed in the left dorsal hippocampus (coordinates from bregma: AP=−2.0 mm; ML=−1.6 mm; DV=−1.5 mm). A ground electrode connected to a screw was placed in the skull above the cerebellum. After a postoperative recovery period of 7 days, the animal was gently restrained and an infusion cannula was inserted into the right amygdala through the guide cannula at the depth of 3.7 mm below dura. Either KA (0.3 μg in 0.5 μl PBS) or vehicle control (0.5 μl of PBS) was infused into the right basolateral amygdala at the rate of 0.11 μl per minute. The infusion cannula was left in the right amygdala for two additional minutes before being withdrawn from the guide cannula. Animals were housed individually for time locked electroencephalogram (EEG) telemetry and video monitoring with food and water ad libitum.
Emergence of SE was typically evident in EEG recordings 5-10 min after KA infusion. The behavioral seizures associated with electrographic seizures typically consisted of immobility, followed by facial automatisms, unilateral or bilateral forelimb clonus, and whole body clonus. Tonic-clonic seizures with loss of posture and jumping also occurred during the seizures (Mouri, G. et al., (2008) Brain Res 1213:140-151). For experiments in which p816 or Scr was administered prior to SE, mice were monitored for 45 min following KA infusion. […]

The test system of assay [4] is anxiety-like behavior. Put plainly: Light/dark box test of anxiety-like behavior 8 weeks after SE. The assay is classed as in vivo, mouse. The settings on record: 8 weeks post-SE; Scr vs PBS controls, pY816 vs Scr. As for the experimental part: It was therefore tested whether this SE-induced behavioral abnormality could also be prevented by treatment with pY816 initiated following SE. To address this question, following completion of video-EEG recording during days 29-42, anxiety-like behavior was assessed using the light-dark emergence test (Bourin, M. et al., (2003) Eur J Pharmacol 463:55-65).
Specifically, a plexiglas arena (40×40×40 cm) was placed in a room with homogenous illumination (˜300 lux). The arena was subdivided into sixteen 10×10 cm squares by lines marked on the floor. Each mouse was placed in the center of the open field and allowed to explore freely the apparatus for 5 minutes. The apparatus ([…]) consisted of two acrylic compartments. The dark compartment (30×40 cm) and light compartment (40×40×40 cm, brightly illuminated at 600 lux) were separated by a divider with a 5.5×5.5 cm opening at floor level. Mice were placed into the dark side and allowed to move freely between the two chambers with the door open for 5 minutes. During behavior tests, a video camera was mounted directly above the arena to monitor animal activity and movement. An investigator unaware of the treatment reviewed the video and recorded: 1) line crossing (frequency of crossing grid lines with all four paws) and the frequency of rearing (standing on hind legs or leaning against the walls of the arena) to assess locomotor activity in open field test; and 2) the latency to first entry into lighted compartment (entering the lighted side with all four paws) and the total time spent on the lighted side to assess anxiety-like behavior in light/dark box test.
Following completion of video-EEG monitoring for recurrent seizures, all KA-infused mice were subjected to open field and light/dark box tests at 8 weeks post-SE. Control animals underwent infusion of PBS into the amygdala and subsequently i.v. infusion of Scr or pY816 peptide and were tested 8 weeks after PBS infusion. No differences were found between Scr and pY816 treated control animals and these groups were combined for analyses.

Where no end group is shown, it is not given here. [ ]: non-standard residue; d: D form. pY = N[C@@H](Cc1ccc(OP(=O)(O)O)cc1)C(=O)O

As for “YGRKKRRQRRR-LQNLAKASPVpYLDI (YGRKKRRQRRRLQNLAKASPV[pY]LDI) [pY816]”, the “inhibition of BDNF-mediated activation of PLCγ1 (pPLCγ1 783 immunoreactivity)” value in assay [1] (0.1 μM, 90 mins preincubation, BDNF 10 ng/ml 15 mins) is reported as “did not inhibit”. Besides, the “inhibition of BDNF-induced increase of pPLCγ1 783” value in assay [1] (1 μM, 90 mins preincubation, BDNF 10 ng/ml 15 mins) was “limited the BDNF-induced increase of pPLCγ1 783 in a concentration dependent manner”. In addition, in assay [1] (10 μM), the “BDNF-mediated increase of p-PLC γ-1/PLC γ-1 ratio (quantified, FIG. 10)” value is “inhibited the BDNF-mediated increase of p-PLC γ-1/PLC γ-1 ratio in a time dependent manner” and the “inhibition of BDNF-mediated increased p-PLCγ1 783” value was “inhibited BDNF-mediated increased p-PLCγ1 783”. In assay [1] (10 μM, 60 min preincubation, compared to Scr), the “inhibition of BDNF-mediated PLCγ1 activation” value turned out to be 68.2%. In addition, in assay [1] (10 μM, 90 min preincubation, compared to Scr), the “inhibition of BDNF mediated PLCγ1 activation” value was 79.3%. For the same substance, the “inhibition of BDNF-induced increase of pPLCγ1 783” value in assay [1] (10 μM, 90 mins preincubation, BDNF 10 ng/ml 15 mins) is recorded as “limited the BDNF-induced increase of pPLCγ1 783 in a concentration dependent manner”. For the same substance, the “inhibition of BDNF-mediated PLCγ1 activation” value in assay [1] (10 μM, 120 min preincubation, compared to Scr) is listed as 94.5%. Also, the “BDNF-mediated increase of the p-ERK/ERK ratio (quantified, FIG. 12)” value in assay [2] is listed as “Neither the Phospho-Tat-TrkBY816 nor the Scr-phospho-Tat-TrkBY816 peptide inhibited”. Further, the “inhibition of status epilepticus” value in assay [3] (1 mg/kg i.v., six hours prior to KA) is “ineffective”. For the same substance, the “animals in which status epilepticus was prevented” value in assay [3] (3 mg/kg i.v., six hours prior to KA) was “at least 70%”. Further, in assay [3] (10 mg/kg i.v.), the “earliest time at which inhibitory effects were evident following i.v. infusion” value is given as 10 min, the “inhibition of status epilepticus remitted by” value was ≤ 72 h, the “peak of inhibition of status epilepticus (pretreatment interval)” value amounted to 0.5 h and the “persistence of inhibition of status epilepticus” value came out at 24 h. In addition, the “return of seizure inhibition to control levels by” value in assay [3] (10 mg/kg i.v.) was ≤ 72 h. Moreover, the “inhibition of status epilepticus (time course)” value in assay [3] (10 mg/kg i.v., 0.16-72 hr prior to KA) was “striking time dependent inhibition of status epilepticus”. The “status epilepticus at 0.5 hour pretreatment” value in assay [3] (10 mg/kg i.v., 0.5 hour prior to KA) was “eliminated altogether”. Further, the “maximal inhibition of convulsive motor and electrographic seizures” value in assay [3] (10 mg/kg i.v., 6 hr prior to KA) amounted to 90%. For the same substance, the “latency to the onset of status epilepticus” value in assay [3] (10 mg/kg i.v., compared to scrambled control peptide 10 mg/kg) is “prolonged”. The “animals in which status epilepticus was prevented” value in assay [3] (10 mg/kg i.v., six hours prior to KA) was “at least 70%”. Further, the “increase of latency to onset of status epilepticus” value in assay [3] (10 mg/kg i.v., six hours prior to KA, compared to Scr-phospho-Tat-pTrkBY816) was found to be 3 fold. For the same substance, in assay [3] (10 mg/kg i.v., up to 24 hr prior to KA), the “inhibition of convulsive motor and electrographic seizures persisting for 24 hr” value is given as 80-90%. In addition, the “onset of inhibition of status epilepticus (pretreatment interval)” value in assay [3] (10 mg/kg i.v., earliest time tested) came to 0.16 h. The “latency to onset of behavioral status epilepticus (dose response)” value in assay [3] (1, 3, 10 mg/kg i.v., six hours prior to KA) is listed as “increased the latency to onset of behavioral status epilepticus in a dose dependent fashion”. In assay [4], the “latency to enter the lighted compartment” value is reported as “significantly reduced latency” and the “time spent in lighted compartment” value is recorded as “spent increased time”.

On to “YGRKKRRQRRRLVApYQLKIAPNDLS (YGRKKRRQRRRLVA[pY]QLKIAPNDLS) [Scr, reference compound]”, for which, in assay [1] (10 μM), the “BDNF-mediated increase of p-PLC γ-1/PLC γ-1 ratio (quantified, FIG. 10)” value was “ineffective” and the “inhibition of BDNF-mediated increased p-PLCγ1 783” value is “no inhibition was evident”. Besides, the “BDNF-mediated increase of the p-ERK/ERK ratio (quantified, FIG. 12)” value in assay [2] is reported as “Neither the Phospho-Tat-TrkBY816 nor the Scr-phospho-Tat-TrkBY816 peptide inhibited”. Moreover, the “animals in which kainic acid induced status epilepticus” value in assay [3] (10 mg/kg i.v. at different times prior to KA) is 23 of 24. The “KA-induced seizures following i.v. infusion of peptide” value in assay [3] (i.v. prior to KA infusion into amygdala) is “prolonged convulsive motor and electrographic seizures”. For the same substance, in assay [3] (regardless of dose (1, 3, 10 mg/kg), six hours prior to KA), the “animals in which kainic acid induced status epilepticus” value is recorded as “all animals”. In assay [4], the “latency to enter the lighted compartment” value was “prolonged latency” and the “time spent in lighted compartment” value is “spent less time”.
